From ChEMBL document CHEMBL1201862, “PubChem BioAssay data set” (2004)
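Tested at 5 concentrations; 48 h exposure; 96-well plates; endpoints linearly interpolated, else capped at highest concentration. GI50 = concentration required for 50% inhibition of growth.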 Calls of active or inactive are those of the source. Rule as the data show it: active = GI50 up to about 1.1 µM and inactive = higher. Where a SMILES comes first, the peptide text is derived from it. [ ]: non-standard residue; d: D form. The star is where a group is joined. Iva = CC[C](C)(N)C(=O)O; Boc = CC(C)(C)OC(=O)*; X54 = C1CCC(=NO*)C1

Tests used:
Assay in all cases: NCI-60 cell line screen, 48 h
BT-549 = system: BT-549
PC-3 = system: PC-3
786-0 = system: 786-0
DMS-273 = system: DMS-273
HOP-18 = system: HOP-18
LXFL 529 = system: LXFL 529
M19-MEL = system: M19-MEL
RXF 631 = system: RXF 631
XF498 = system: XF498

Measured: GI50

COC(=O)/C=C\Sc1ccn(/C=C\C(=O)OC)c(=S)n1
inactive: BT-549 22.9 µM | PC-3 19.1 µM

COc1ccc(OC)c(/C=C/C(=O)C(C)(C)C)c1
inactive: 786-0 19.5 µM | DMS-273 21.1 µM | HOP-18 21.3 µM | LXFL 529 19.2 µM | M19-MEL 16.3 µM | RXF 631 32.8 µM

C/C(=N/NC(=O)c1ccncc1)C(F)(F)F
inactive: BT-549 > 100 µM | PC-3 > 100 µM

COc1ccc(CCN(C)C2CCC(C#N)(c3ccc(OC)c(OC)c3)CC2)cc1OC (centres undefined)
inactive: 786-0 > 100 µM | DMS-273 > 100 µM | HOP-18 > 100 µM | LXFL 529 > 100 µM | M19-MEL > 100 µM | RXF 631 61.2 µM | XF498 > 100 µM

C[C@@H]1C[C@]2(C[C@@H](C)[C@H]3C(C[C@@]4(C)CCC[C@@H]5C6=C[C@H](CCC34C)OC6=CC(=O)OC5(C)C)O2)OC1=O (some centres undefined)
inactive: DMS-273 > 51.5 µM | HOP-18 > 51.5 µM | M19-MEL > 51.5 µM | XF498 > 51.5 µM

CC(=O)c1ccc(Oc2ccc(/C(C)=N\N=C(N)N)cc2)cc1
inactive: LXFL 529 4.18 µM

CCCCCCCCCCCCCCCc1ccc(OCC(O)CO)cc1 (centres undefined)
inactive: DMS-273 17.7 µM | HOP-18 > 100 µM | LXFL 529 26.7 µM | M19-MEL 18 µM | RXF 631 27.1 µM | XF498 19.4 µM

CC(Oc1ccc(Oc2cnc3ccc(Cl)cc3n2)cc1)C(=O)O (centres undefined)
inactive: BT-549 > 80.2 µM

CCOC(=O)C1=C(C)N(C2OC(COC(C)=O)C(OC(C)=O)C(OC(C)=O)C2OC(C)=O)C(=O)NC1c1ccccc1 (centres undefined)
inactive: HOP-18 > 100 µM | LXFL 529 > 100 µM | M19-MEL > 100 µM | RXF 631 > 100 µM

O=C1C(Cl)N(c2ccc(Cl)cc2)C1c1c[nH]c2ccccc12 (centres undefined)
inactive: LXFL 529 14.1 µM | M19-MEL 24.3 µM | XF498 17.5 µM

COc1ccccc1/C=C1\Sc2scc(-c3cccc([N+](=O)[O-])c3)[n+]2C1=O
inactive: 786-0 2.76 µM | BT-549 2.55 µM | PC-3 15.7 µM

CC(C(=O)O)c1cnn(-c2ccccc2)c1-n1cccc1 (centres undefined)
inactive: DMS-273 > 100 µM | HOP-18 > 100 µM | M19-MEL > 100 µM | XF498 > 100 µM

COc1ccc(/C=N/n2cnc3c(c2=O)SC(=C(C#N)C#N)N3c2ccccc2)cc1
inactive: HOP-18 50.7 µM | LXFL 529 > 100 µM | M19-MEL > 100 µM

CCOC(=O)/C(C#N)=C\c1ccc(N(CCC(=O)O)CCC(=O)O)c(I)c1
inactive: 786-0 > 10 µM | BT-549 > 10 µM | PC-3 > 10 µM

CSc1cc(=O)n2c3ccccc3c3ccnc1c32
inactive: DMS-273 79.6 µM | M19-MEL > 100 µM

NC(Cc1ccccc1CP(=O)(O)O)C(=O)O (centres undefined)
inactive: BT-549 > 100 µM | PC-3 > 100 µM

COc1cc2cc[n+]3c(C)c4cc(OC)c(OC)cc4c([O-])c3c2cc1OC
inactive: DMS-273 53.6 µM | LXFL 529 40.1 µM | M19-MEL 46.6 µM | XF498 22.1 µM

OC(c1ccc(Br)cc1)(c1cccs1)C1CC1 (centres undefined)
inactive: 786-0 18.3 µM | BT-549 24.4 µM | PC-3 22.8 µM

CCC(C)(NC(=O)C(C)NC(=O)OC(C)(C)C)C(=O)NC(C)C(=O)NC(C)(CC)C(=O)ON=C1CCCC1 (centres undefined) (Boc-A[Iva]A[Iva]-X54; configuration not given here)
inactive: BT-549 > 100 µM | PC-3 > 100 µM

COc1ncnc2c(Cl)c(C(O)c3ccccc3)c(Cl)cc12 (centres undefined)
inactive: BT-549 20.6 µM | PC-3 27.4 µM

CCOC(=O)c1ccc(N2C(=O)/C(=C/c3ccc(N(CCC#N)CCC#N)cc3)N=C2c2cc([N+](=O)[O-])ccc2Cl)cc1
inactive: DMS-273 > 100 µM | HOP-18 > 100 µM | LXFL 529 > 100 µM | M19-MEL > 100 µM | RXF 631 > 100 µM

OCC(O)COc1ccc(Br)cc1 (centres undefined)
inactive: DMS-273 > 100 µM | HOP-18 > 100 µM | LXFL 529 > 100 µM | RXF 631 > 100 µM | XF498 > 100 µM
